Reference: patent US20160009752A1, “[…]-OXIMINO-AMINOALKYLETHERS AND PROCESS FOR PREPARATION THEREOF, USEFUL AS ANTIDIABETIC AND […] AGENTS” (COUNCIL OF SCIENTIFIC & INDUSTRIAL RESEARCH, priority 2013, published 2016)

System: Triton-induced hyperlipidemic rat model
Test: Antidyslipidaemic activity in Triton-induced hyperlipidemic rat model
Format: in vivo
Conditions: summary of Tables 1-2
Protocol: Male charles foster rats weighing around 200 to 225 g were divided into control, dyslipidemic and dyslipidemic plus drug treated groups containing six animals in each group. Dyslipidemia was induced by administration of triton WR-1339 (200 mg/kg intraperitoneally). All animals were maintained on a special pellet diet and water ad libitum. Test compounds and standard drug (Gemfibrozil) were macerated in 0.2% aqueous gum acacia. The fine suspension of test compounds and standard drug were fed orally to the respective groups at the dose of 100 mg/kg simultaneously with triton WR-1339 in drug treated group. The animals of control group received the same amount of gum acacia by similar route of administration. […]
Total plasma cholesterol was estimated using the kit and instructions as provided by the manufacturer Roche Diagnostics. […] The hydrogen peroxide combines with hydroxybenzoic acid (HBA) and 4-aminoantipyrine (4-AAA) in the presence of peroxidase (POD) to form a red chromophore (quinoneimine) which is quantitated at 500-505 nm. […]
Total plasma triglycerides were estimated using the kit and instructions as provided by the manufacture i.e. Roche Diagnostics. […] In the presence of peroxidase, hydrogen peroxide oxidatively couples with 4-aminoantipyrine and 4-chlorophenol to produce red chromophore quinonimine which is quantitated at 500-505 nm. […]

For `C/C(=N/OCc1ccccc1)C1=CC[C@H]2[C@@H]3CC=C4C[C@@H](O)CC[C@]4(C)[C@H]3CC[C@]12C` [Compound 10b, 3β-Hydroxy-pregna-5,16-dien-20-one-O-benzyl-oxime], the “antidyslipidemic / antidiabetic activity, summary in words” value was “mainly antidyslipidemic activity”.

With `CCCCO/N=C(/C)C1=CC[C@H]2[C@@H]3CC=C4C[C@@H](O)CC[C@]4(C)[C@H]3CC[C@]12C` [Compound 10a, 3β-Hydroxy-pregna-5,16-dien-20-one-O-n-butyl-oxime] the “antidyslipidemic / antidiabetic activity, summary in words” value was “mainly antidyslipidemic activity”.
